Consider 7 compounds from patent US20240158446A1, “CYCLIC COMPOUND HAVING SELECTIVE INHIBITORY ACTION ON KRAS OVER HRAS AND NRAS” (CHUGAI SEIYAKU KABUSHIKI KAISHA, priority 2021, published 2024).

The target of assay [1] is GDP-bound HRAS wild-type protein (Homo sapiens, UniProt P01112). The assay can be described thus: Binding to HRAS by surface plasmon resonance (SPR), Single Cycle Kinetics. Conditions: for HRAS/KRAS (ratio of KD value with respect to GDP-bound HRAS wild-type protein to KD value with respect to KRAS): SPR KD ratio HRAS/KRAS, class symbols; for HRAS/KRAS (ratio of KD value for HRAS to KD value for KRAS): SPR, GDP-bound HRAS wild-type protein vs GDP-bound KRAS wild-type protein.
Sequence of GDP-bound HRAS wild-type protein (P01112 whole entry): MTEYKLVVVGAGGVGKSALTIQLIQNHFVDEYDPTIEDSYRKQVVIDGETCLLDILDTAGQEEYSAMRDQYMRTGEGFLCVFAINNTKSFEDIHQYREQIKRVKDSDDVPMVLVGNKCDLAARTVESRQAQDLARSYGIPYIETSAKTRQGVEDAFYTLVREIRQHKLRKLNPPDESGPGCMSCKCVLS

The target of assay [2] is GDP-bound NRAS wild-type protein (Homo sapiens, UniProt P01111). The assay can be described thus: Binding to NRAS by surface plasmon resonance (SPR), Single Cycle Kinetics. The settings on record: for NRAS/KRAS (ratio of KD value with respect to GDP-bound NRAS wild-type protein to KD value with respect to KRAS): SPR KD ratio NRAS/KRAS, class symbols; for NRAS/KRAS (ratio of KD value for NRAS to KD value for KRAS): SPR, GDP-bound NRAS wild-type protein vs GDP-bound KRAS wild-type protein.
Sequence of GDP-bound NRAS wild-type protein (P01111 whole entry): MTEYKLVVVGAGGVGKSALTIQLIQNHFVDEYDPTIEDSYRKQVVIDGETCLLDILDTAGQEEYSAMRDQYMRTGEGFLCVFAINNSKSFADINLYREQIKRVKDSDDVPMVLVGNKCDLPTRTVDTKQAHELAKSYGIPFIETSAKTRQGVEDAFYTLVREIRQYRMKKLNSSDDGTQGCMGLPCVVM

`CCO[C@@H]1C[C@H]2C(=O)NC3(CCC3)C(=O)N(C)[C@@H](C3CCCC3)C(=O)N(C)[C@H](C(=O)N(C)CC)CC(=O)N(C)[C@@H](CC3CCC3)C(=O)N[C@@H]([C@@H](C)CC)C(=O)N(C)CC(=O)N(C)[C@H]3C/C=C\CCN(C3=O)[C@@H](Cc3ccc(C(F)(F)F)cc3)C(=O)N(C)CC(=O)N[C@@H](CCc3ccc(Cl)c(Cl)c3)C(=O)N2C1` [PP2824]: the “HRAS/KRAS (ratio of KD value with respect to GDP-bound HRAS wild-type protein to KD value with respect to KRAS)” value in assay [1] is “A (a compound having 10 or more and less than 20 is denoted as A)”. Besides, the “NRAS/KRAS (ratio of KD value with respect to GDP-bound NRAS wild-type protein to KD value with respect to KRAS)” value in assay [2] was “A (a compound having 10 or more and less than 20 is denoted as A)”.

As to `CC[C@H](C)[C@@H]1NC(=O)[C@H](CC(C)C)N(C)C(=O)C[C@@H](C(=O)N2CCOCC2)N(C)C(=O)[C@H](C2CCCC2)N(C)C(=O)C2(CCC2)NC(=O)[C@@H]2C[C@@H](OCC(F)F)CN2C(=O)[C@H](CCc2cc(F)c(C(F)(F)F)c(F)c2)NC(=O)CN(C)C(=O)[C@H](Cc2ccc(C(F)(F)F)cc2)N2CCCCC[C@@H](C2=O)N(C)C(=O)CN(C)C1=O` [PP1006], the “HRAS/KRAS (ratio of KD value for HRAS to KD value for KRAS)” value in assay [1] is “B (a compound having 3 or more and less than 10 is denoted as B)”. In addition, the “NRAS/KRAS (ratio of KD value for NRAS to KD value for KRAS)” value in assay [2] was “B (a compound having 3 or more and less than 10 is denoted as B)”.

Consider `CCO[C@@H]1C[C@H]2C(=O)NC3(CCC3)C(=O)N(C)[C@@H](C(CC)CC)C(=O)N(C)[C@H](C(=O)N3CCOCC3)CC(=O)N(C)[C@@H](CC3CC3)C(=O)N[C@@H]([C@@H](C)CC)C(=O)N(C)CC(=O)N(C)[C@H]3C/C=C\CCN(C3=O)[C@@H](Cc3ccc(F)cc3)C(=O)N(C)CC(=O)N[C@@H](CCc3cc(F)c(C(F)(F)F)c(F)c3)C(=O)N2C1` [PP1527], for which the “HRAS/KRAS (ratio of KD value for HRAS to KD value for KRAS)” value in assay [1] (KD ratio class) is “A (a compound having 10 or more and less than 20 is denoted as A)”. For the same compound, the “NRAS/KRAS (ratio of KD value for NRAS to KD value for KRAS)” value in assay [2] (KD ratio class) is “A (a compound having 10 or more and less than 20 is denoted as A)”.

With `CCO[C@@H]1C[C@H]2C(=O)NC3(CCC3)C(=O)N(C)[C@@H](C3CCCC3)C(=O)N(C)[C@H](C(=O)N(C)C)CC(=O)N(C)[C@@H](CC3CC3)C(=O)N[C@@H]([C@@H](C)CC)C(=O)N(C)CC(=O)N(C)[C@H]3C/C=C\CCN(C3=O)[C@@H](Cc3ccc(F)cc3C)C(=O)N(C)CC(=O)N[C@@H](CCc3cc(F)c(C(F)(F)F)c(F)c3)C(=O)N2C1` [PP1528], the “HRAS/KRAS (ratio of KD value for HRAS to KD value for KRAS)” value in assay [1] (KD ratio class) is “B (a compound having 3 or more and less than 10 is denoted as B)”. Also, the “NRAS/KRAS (ratio of KD value for NRAS to KD value for KRAS)” value in assay [2] (KD ratio class) was “A (a compound having 10 or more and less than 20 is denoted as A)”.

Regarding `CC[C@H](C)[C@@H]1NC(=O)[C@H](CC(C)C)N(C)C(=O)C[C@@H](C(=O)N2CCOCC2)N(C)C(=O)[C@H](C2CCCC2)N(C)C(=O)C2(CCCC2)NC(=O)[C@@H]2CCCN2C(=O)[C@H](CCc2ccc(C(F)(F)F)c(Cl)c2)NC(=O)CN(C)C(=O)[C@H](Cc2ccc(C(F)(F)F)cc2)N2CCCCC[C@@H](C2=O)N(C)C(=O)CN(C)C1=O` (stereo in doubt) [PP0319], the “HRAS/KRAS (ratio of KD value for HRAS to KD value for KRAS)” value in assay [1] is “B (a compound having 3 or more and less than 10 is denoted as B)”. In addition, in assay [2], the “NRAS/KRAS (ratio of KD value for NRAS to KD value for KRAS)” value is “B (a compound having 3 or more and less than 10 is denoted as B)”.

As to `CCOC[C@H]1C(=O)N[C@@H]([C@@H](C)CC)C(=O)N(C)CC(=O)N(C)[C@H]2C/C=C\CCN(C2=O)[C@@H](Cc2ccc(C)cc2F)C(=O)N(C)CC(=O)N[C@@H](CCc2ccc(C(F)(F)F)c(OC)c2)C(=O)N2C[C@@H](C)C[C@H]2C(=O)NC2(CC(C)(C)C2)C(=O)N(C)[C@@H](C2CCCC2)C(=O)N(C)[C@H](C(=O)N(C)CC)CC(=O)N1C` [PP2697], the “HRAS/KRAS (ratio of KD value with respect to GDP-bound HRAS wild-type protein to KD value with respect to KRAS)” value in assay [1] was “A (a compound having 10 or more and less than 20 is denoted as A)”. In addition, the “NRAS/KRAS (ratio of KD value with respect to GDP-bound NRAS wild-type protein to KD value with respect to KRAS)” value in assay [2] is “A (a compound having 10 or more and less than 20 is denoted as A)”.

In the case of `CCO[C@@H]1C[C@H]2C(=O)NC3(CCC3)C(=O)N(C)[C@@H](C3CCCC3)C(=O)N(C)[C@H](C(=O)N(C)C)CC(=O)N(C)[C@@H](CC)C(=O)N[C@@H]([C@@H](C)CC)C(=O)N3CC[C@@H]3C(=O)N(C)[C@H]3C/C=C\CCN(C3=O)[C@@H](Cc3ccc(C(F)(F)F)cc3)C(=O)N(C)CC(=O)N[C@@H](CCc3cc(F)c(C(F)(F)F)c(F)c3)C(=O)N2C1` [PP1064], the “HRAS/KRAS (ratio of KD value for HRAS to KD value for KRAS)” value in assay [1] was “A (a compound having 10 or more and less than 20 is denoted as A)”. The “NRAS/KRAS (ratio of KD value for NRAS to KD value for KRAS)” value in assay [2] was “A (a compound having 10 or more and less than 20 is denoted as A)”.
